Data published in PubChem BioAssay AID1259408 (Genetic Toxicology Data Bank (GENE-TOX), 2018).
Activity calls are given as the source filed them. The rule behind the calls is not given here.

Tested on: GENE-TOX genotoxicity assays, various organisms and cells
Assay: GENE-TOX mutagenicity studies
Conditions: for call: Assay Type: In vivo carcinogenicity studies
[1] = Species/Cell Type: Human diploid fibroblasts, Assay Type: Unscheduled DNA synthesis (UDS) in vitro, DNA effects, Assay Code: UDH+, Evaluation Type: Evaluation A (Pre-1980)
[2] = Species/Cell Type: Saccharomyces cerevisiae, Assay Type: Mitotic recombination or gene conversion, Assay Code: YEC-, Evaluation Type: Evaluation A (Pre-1980)
[3] = Species/Cell Type: Salmonella typhimurium (one or more of the five standard strains: TA98, TA100, TA1535, TA1537, and TA1538), Assay Type: Histidine reverse gene mutation, Ames assay, Assay Code: SALT, Evaluation Type: Evaluation A (Pre-1980)
[4] = Species/Cell Type: Nonhuman, Assay Type: Sister-chromatid exchange (SCE) in vitro, Assay Code: SC2+D, Dose Response: With dose response, Evaluation Type: Evaluation B (Post-1980)
[5] = Species/Cell Type: Salmonella typhimurium (one or more of the five standard strains: TA98, TA100, TA1535, TA1537, and TA1538), Assay Type: Histidine reverse gene mutation, Ames assay, Assay Code: SAL+*, Activation: With metabolic activation, Evaluation Type: Evaluation A (Pre-1980)
[6] = Species/Cell Type: Chinese hamster lung (V79) cells, Assay Type: Forward gene mutation at the HPRT or ouabain locus, Assay Code: V79+, Evaluation Type: Evaluation A (Pre-1980)
[7] = Species/Cell Type: Nonhuman, Assay Code: CCG+L, Evaluation Type: Evaluation A (Pre-1980)
[8] = Species/Cell Type: Mammalian polychromatic erythrocytes, Assay Type: Micronucleus test, chromosome aberrations, Assay Code: MNT+, Evaluation Type: Evaluation B (Post-1980)
[9] = Species/Cell Type: Bacillus subtilis (H17 vs M45), Assay Type: Rec-assay, spot test, DNA effects (bacterial DNA repair), Assay Code: REWT, Evaluation Type: Evaluation A (Pre-1980)

Which mutagenic call (Species/Cell Type: Drosophila melanogaster, Assay Type: Sex-linked recessive lethal gene mutation, Assay Code: SRL+, Evaluation Type: Evaluation A (Pre-1980)) does the source give for O=C1CC[C@@]2(O)[C@H]3Cc4ccc(O)c5c4[C@@]2(CCN3CC2CC2)[C@H]1O5 here?
The mutagenic call was “active; positive”.

What about the mutagenic call (Species/Cell Type: Drosophila melanogaster, Sex: Male, Assay Type: Heritable translocation test, chromosome aberrations, Assay Code: DHT-, Evaluation Type: Evaluation A (Pre-1980)) of the same compound?
Its mutagenic call is “inactive; negative”.

And the mutagenic call [1]?
Its mutagenic call is “active; positive”.

And the mutagenic call [2]?
Its mutagenic call is “inactive; negative”.

And the mutagenic call [3]?
Its mutagenic call is “no conclusion”.

For CCOC(=O)CCCCC(=O)OCC, which mutagenic call (Species/Cell Type: Rodents, Sex: Male, Assay Type: Dominant lethal test, Assay Code: DLT+, Evaluation Type: Evaluation A (Pre-1980)) is on record?
Its mutagenic call is “active; positive”.

With c1ccc(N=Nc2ccccc2)cc1 as the compound, how does the call (Species/Cell Type: Nonhuman, Assay Code: CCG+, Evaluation Type: Evaluation A (Pre-1980)) read?
Its call is “active; positive”.

What about the mutagenic call [4] of the same compound?
Its mutagenic call is “active; positive”.

And the mutagenic call [5]?
The mutagenic call was “active; positive”.

With O=C1c2ccccc2NC(c2ccc([N+](=O)[O-])o2)N1O (stereo unspecified) as the compound, how does the mutagenic call (Species/Cell Type: Mammalian polychromatic erythrocytes, Assay Type: Micronucleus test, chromosome aberrations, Assay Code: MNT-, Evaluation Type: Evaluation B (Post-1980)) read?
The mutagenic call was “inactive; negative”.

Which results are given for Cc1ccc2cc3c(ccc4ccccc43)c3c2c1C(O)C3 (stereo unspecified)?
mutagenic call [6]: active; positive; call [7]: active; positive; mutagenic call [3]: no conclusion

Which mutagenic call [3] does the source give for CC(=O)Nc1nc(-c2ccc([N+](=O)[O-])s2)cs1 here?
Its mutagenic call is “no conclusion”.

For O=C1c2ccccc2-c2ccccc21, which mutagenic call (Species/Cell Type: Escherichia coli polA (W3119 vs P3478), Assay Type: Rec-assay, DNA effects (bacterial DNA repair), Assay Code: RE1T, Evaluation Type: Evaluation A (Pre-1980)) is on record?
Its mutagenic call is “no conclusion”.

Which mutagenic call (Species/Cell Type: Plant, Assay Type: Micronucleus test, chromosome aberrations, Assay Code: MNP+, Evaluation Type: Evaluation A (Pre-1980)) does the source give for Nc1ncnc2c1ncn2[C@@H]1O[C@H](CO[C@H]2[C@H](O)[C@@H](O)[C@@H](O[C@@H](C(=O)O)[C@H](O)[C@H](OP(=O)(O)O)[C@H](O)C(=O)O)O[C@@H]2CO)[C@@H](O)[C@H]1O here?
The mutagenic call was “active; positive”.

What does the source list for Clc1ccc(Cl)cc1?
mutagenic call (Species/Cell Type: Allium cepa, Assay Type: Chromosome aberrations, Assay Code: ALC+, Evaluation Type: Evaluation A (Pre-1980)): active; positive; mutagenic call [8]: active; positive

For O=S(=O)(O)c1ccc2c(N=Nc3cccc4ccccc34)c(O)c(S(=O)(=O)O)cc2c1, which mutagenic call [9] is on record?
Its mutagenic call is “no conclusion”.

For Oc1c(I)cc(Cl)c2cccnc12, which mutagenic call (Species/Cell Type: Neurospora crassa, Assay Type: Aneuploidy, chromosome aberrations, Assay Code: NEN-, Evaluation Type: Evaluation A (Pre-1980)) is on record?
The mutagenic call was “inactive; negative”.

How did the mutagenic call (Species/Cell Type: Salmonella typhimurium, Assay Type: Forward and reverse gene mutation, host-mediated assay, Assay Code: HMAT, Evaluation Type: Evaluation A (Pre-1980)) turn out when COc1cc(C(=O)CCN2CCCC2)ccc1O was run?
The mutagenic call was “no conclusion”.

With COC([CH2][Hg+])CNC(=O)C1CCC(C)(C(=O)[O-])C1(C)C.O=C([O-])C[S-].[H+].[H+] (stereo unspecified) as the compound, how does the mutagenic call (Species/Cell Type: Mammalian oocytes or early embryo, Assay Type: Chromosome aberrations in vivo, Assay Code: CYO-, Evaluation Type: Evaluation A (Pre-1980)) read?
Its mutagenic call is “inactive; negative”.

How did the mutagenic call (Species/Cell Type: Nonhuman, Assay Type: Sister-chromatid exchange (SCE) in vitro, Assay Code: SC2T, Evaluation Type: Evaluation B (Post-1980)) turn out when CC1=C(/C=C/C(C)=C/C=C/C(C)=C/C=O)C(C)(C)CCC1 was run?
Its mutagenic call is “no conclusion”.

How did the mutagenic call (Species/Cell Type: Neurospora crassa, Assay Type: Forward gene mutation, Assay Code: NEF-, Evaluation Type: Evaluation A (Pre-1980)) turn out when C1CC2OC2C2OC12 (stereo unspecified) was run?
The mutagenic call was “inactive; negative”.

For O=C(O)/C=C/c1ccc(O)c(O)c1, which mutagenic call (Species/Cell Type: Mammalian polychromatic erythrocytes, Assay Type: Micronucleus test, chromosome aberrations, Assay Code: MNTT, Evaluation Type: Evaluation B (Post-1980)) is on record?
Its mutagenic call is “no conclusion”.

Which mutagenic call (Species/Cell Type: Allium cepa, Assay Type: Chromosome aberrations, Assay Code: ALC-, Evaluation Type: Evaluation A (Pre-1980)) does the source give for [N-]=[N+]=CC(=O)CCCCC(=O)C=[N+]=[N-] here?
The mutagenic call was “inactive; negative”.

And the mutagenic call (Species/Cell Type: Aspergillus nidulans, Assay Type: Reverse gene mutation, Assay Code: ASRT, Evaluation Type: Evaluation A (Pre-1980))?
The mutagenic call was “no conclusion”.

And the mutagenic call (Species/Cell Type: Hordeum vulgare (barley), Assay Type: Gene mutation, Assay Code: HOM+, Evaluation Type: Evaluation A (Pre-1980))?
The mutagenic call was “active; positive”.

With OC1C=Cc2c(cc3ccc4cccc5ccc2c3c45)C1O (stereo unspecified) as the compound, how does the mutagenic call [6] read?
Its mutagenic call is “active; positive”.

How did the mutagenic call (Species/Cell Type: Escherichia coli WP2, Assay Type: Tryptophan reverse gene mutation, Assay Code: WP2-, Evaluation Type: Evaluation A (Pre-1980)) turn out when O=Cc1ccc([N+](=O)[O-])o1 was run?
The mutagenic call was “inactive; negative”.

What about the mutagenic call [2] of the same compound?
The mutagenic call was “inactive; negative”.

For CO[C@H](C(=O)[C@@H](O)[C@@H](C)O)[C@@H]1Cc2cc3cc(O[C@H]4C[C@@H](O[C@H]5C[C@@H](O)[C@H](O)[C@@H](C)O5)[C@H](O)[C@@H](C)O4)c(C)c(O)c3c(O)c2C(=O)[C@H]1O[C@H]1C[C@@H](O[C@H]2C[C@@H](O[C@H]3C[C@](C)(O)[C@H](O)[C@@H](C)O3)[C@@H](O)[C@@H](C)O2)[C@H](O)[C@@H](C)O1, which mutagenic call (Species/Cell Type: Chinese hamster ovary (CHO) cells, Assay Type: Forward gene mutation at the HPRT locus, Assay Code: CHO+, Evaluation Type: Evaluation B (Post-1980)) is on record?
The mutagenic call was “active; positive”.

With CCOc1ccc(CC(=O)NN)cc1CN(CC)CC as the compound, how does the mutagenic call (Species/Cell Type: Saccharomyces cerevisiae, Assay Type: Reverse gene mutation, Assay Code: YERT, Evaluation Type: Evaluation A (Pre-1980)) read?
The mutagenic call was “no conclusion”.

For O=c1[nH]c2ccccc2n1CCCN1CCC(n2c(=O)[nH]c3cc(Cl)ccc32)CC1, which mutagenic call (Species/Cell Type: Mammalian polychromatic erythrocytes, Assay Type: Micronucleus test, chromosome aberrations, Assay Code: MNT+U, Dose Response: Unconfirmed positive response, Evaluation Type: Evaluation B (Post-1980)) is on record?
Its mutagenic call is “active; positive”.

NS(=O)(=O)c1cc(C(=O)O)c(NCc2ccco2)cc1Cl was tested. Which mutagenic call (Species/Cell Type: Human, Assay Type: Sister-chromatid exchange (SCE) in vitro, Assay Code: SC1T, Evaluation Type: Evaluation B (Post-1980)) did it give?
The mutagenic call was “no conclusion”.

And the mutagenic call (Species/Cell Type: Saccharomyces cerevisiae, Assay Type: Mitotic recombination or gene conversion, Assay Code: YEC-*, Activation: With metabolic activation, Evaluation Type: Evaluation A (Pre-1980))?
Its mutagenic call is “inactive; negative”.

What about the mutagenic call [3] of the same compound?
Its mutagenic call is “no conclusion”.

For COc1cc2c[n+](C)c3c4cc(OC)c(OC)cc4ccc3c2cc1OC, which mutagenic call [3] is on record?
Its mutagenic call is “no conclusion”.

With Cc1[nH]cnc1CSCCN(N=O)C(=NC#N)N(C)N=O as the compound, how does the mutagenic call [4] read?
Its mutagenic call is “active; positive”.

How did the mutagenic call (Species/Cell Type: Human lymphocytes, Assay Type: Sister-chromatid exchange (SCE) in vitro, Assay Code: SCL+D, Dose Response: With dose response, Evaluation Type: Evaluation B (Post-1980)) turn out when Cn1ccc(CO)c1 was run?
The mutagenic call was “active; positive”.

And the mutagenic call (Species/Cell Type: Human, Assay Type: Sister-chromatid exchange (SCE) in vitro, Assay Code: SC1+D, Dose Response: With dose response, Evaluation Type: Evaluation B (Post-1980))?
Its mutagenic call is “active; positive”.

CN(OC(=O)c1ccccc1)c1ccc(N=Nc2ccccc2)cc1 was tested. Which mutagenic call (Species/Cell Type: Drosophila melanogaster, Assay Type: Sex-linked recessive lethal gene mutation, Assay Code: SRLT, Evaluation Type: Evaluation A (Pre-1980)) did it give?
The mutagenic call was “no conclusion”.

O=C1c2ccccc2C(=O)c2c(O[C@@H]3O[C@H](CO)[C@@H](O)[C@H](O)[C@H]3O)ccc(O)c21 was tested. Which mutagenic call [5] did it give?
The mutagenic call was “active; positive”.

CCCCC1C(=O)N(c2ccccc2)N(c2ccccc2)C1=O was tested. Which mutagenic call (Species/Cell Type: Mammalian germ cells, Sex: Male, Assay Type: Chromosome aberrations in vivo, Assay Code: CY9-, Evaluation Type: Evaluation A (Pre-1980)) did it give?
Its mutagenic call is “inactive; negative”.

What about the mutagenic call [8] of the same compound?
The mutagenic call was “active; positive”.

What about the mutagenic call (Species/Cell Type: Mammalian polychromatic erythrocytes, Assay Type: Micronucleus test, chromosome aberrations, Assay Code: MNTT, Evaluation Type: Evaluation A (Pre-1980)) of the same compound?
Its mutagenic call is “no conclusion”.

And the mutagenic call (Species/Cell Type: Rodents, Sex: Male, Assay Type: Dominant lethal test, Assay Code: DLT-, Evaluation Type: Evaluation A (Pre-1980))?
The mutagenic call was “inactive; negative”.

What about the mutagenic call [3] of the same compound?
The mutagenic call was “no conclusion”.

With Nc1ccc(N=Nc2cccc(N=Nc3ccc(N)cc3N)c2)c(N)c1 as the compound, how does the mutagenic call [9] read?
Its mutagenic call is “no conclusion”.

Which mutagenic call [6] does the source give for Cc1ccc2cc3c(ccc4ccccc43)c3c2c1CC3O (stereo unspecified) here?
The mutagenic call was “active; positive”.

And the call [7]?
Its call is “active; positive”.

And the mutagenic call [5]?
Its mutagenic call is “active; positive”.

For O=C(O)CSc1ccc2c3c(cccc13)C(=O)c1ccccc1-2, which mutagenic call (Species/Cell Type: Salmonella typhimurium (one or more of the five standard strains: TA98, TA100, TA1535, TA1537, and TA1538), Assay Type: Histidine reverse gene mutation, Ames assay, Assay Code: SAL+, Evaluation Type: Evaluation A (Pre-1980)) is on record?
Its mutagenic call is “active; positive”.

For O/C=C/Cc1ccc2c(c1)OCO2, which mutagenic call [1] is on record?
The mutagenic call was “active; positive”.

For Oc1ccc2c(c1)cc1ccc3cccc4ccc2c1c34, which mutagenic call (Species/Cell Type: Chinese hamster lung (V79) cells, Assay Type: Forward gene mutation at the HPRT or ouabain locus, Assay Code: V79-*, Activation: With metabolic activation, Evaluation Type: Evaluation A (Pre-1980)) is on record?
Its mutagenic call is “inactive; negative”.

And the call (Species/Cell Type: Nonhuman, Assay Code: CCGT, Evaluation Type: Evaluation A (Pre-1980))?
Its call is “no conclusion”.

And the mutagenic call [3]?
Its mutagenic call is “no conclusion”.

With CCS(=O)(=O)OC as the compound, how does the mutagenic call (Species/Cell Type: Glycine max (soybean), Assay Type: Gene mutation, Assay Code: GLM+, Evaluation Type: Evaluation A (Pre-1980)) read?
Its mutagenic call is “active; positive”.

What about the mutagenic call (Species/Cell Type: Hordeum vulgare (barley), Assay Type: Chromosome aberrations, Assay Code: HOC+, Evaluation Type: Evaluation A (Pre-1980)) of the same compound?
Its mutagenic call is “active; positive”.

And the mutagenic call (Species/Cell Type: Hordeum vulgare (barley), Assay Type: Gene mutation, Assay Code: HOM+D, Dose Response: With dose response, Evaluation Type: Evaluation A (Pre-1980))?
Its mutagenic call is “active; positive”.

What about the mutagenic call (Species/Cell Type: Rabbit, Sex: Male, Assay Type: Sperm morphology, Assay Code: SPRT, Evaluation Type: Evaluation A (Pre-1980)) of the same compound?
Its mutagenic call is “no conclusion”.
